Results taken from patent US8507485B2, “Cyclic compound having pyrimidinylalkylthio group” (Santen Pharmaceutical Co., Ltd., priority 2005, dated 2013).

Test system: HUVEC (human umbilical vein endothelial cells), VEGF-induced proliferation
Assay: Cell proliferation inhibitory action test using a VEGF-induced HUVEC proliferation reaction evaluation system
Format: cell-based
Settings: 20 μg/mL test compound solution, 5 μL per well, WST-8 three days after VEGF addition, absorbance at 450 nm, control 1.0% DMSO; for inhibition at 20 µg/mL (stock): Homo sapiens, 72 h, read-out: Cell proliferation inhibition rate (%)
Description: In order to find the usefulness of the compound of the present invention, a test for inhibitory effects of the compound of the present invention on cell proliferation was carried out using a VEGF-induced HUVEC proliferation reaction evaluation system (HUVEC: human umbilical vein endothelial cells), which is a method of evaluating antiangiogenic effects of drugs, and the antiangiogenic effects of the compounds were evaluated.
As one of the widely used methods of evaluating antiangiogenic effects of drugs, a cell proliferation inhibitory action test using a VEGF-induced HUVEC proliferation reaction evaluation system has been reported in Cancer Res., 59, 99-106 (1999). According to the method described in the above-mentioned document, a cell proliferation inhibitory action test of the compound of the present invention was carried out, and the cell proliferation inhibition rate was calculated. Then, the antiangiogenic effect of each of the compound of the present invention was evaluated using the obtained rate as an index.
(Preparation of Test Compound Solution)
Each test compound was dissolved in dimethyl sulfoxide (hereinafter abbreviated as DMSO), and the obtained solution was diluted with a commercially available phosphate buffer solution (hereinafter abbreviated as PBS), whereby a 20 μg/mL test compound solution was prepared.
(Preparation of HUVEC Suspension)
HUVEC was suspended in F12K medium containing 0.5% fetal bovine serum (hereinafter abbreviated as FBS), whereby a 2×10^4 cells/mL HUVEC suspension was prepared.
(Preparation of VEGF Solution)
VEGF was dissolved in PBS containing 0.1% bovine serum albumin, and the obtained solution was diluted with F12K medium containing 0.5% FBS, whereby a 400 ng/mL VEGF solution was prepared.
(Test Method and Measurement Method)
1) The HUVEC suspension was inoculated in an amount of 100 μL into each well of a 96-well plate coated with type I collagen (2×10^3 cells per well).
2) One day after the inoculation, the test compound solution was added in an amount of 5 μL per well.
3) One hour after the addition of the test compound solution, the VEGF solution was added in an amount of 5 μL per well.
4) Three days after the addition of the VEGF solution, WST-8 assay reagent (Dojin Chemical Co., Ltd.) was added in an amount of 10 μL per well.
5) After 3 hours, the above-mentioned plate was attached to an absorptiometer (Multilabel Counter ARVO), and an absorbance at 450 nm of suspension in each well (hereinafter referred to as a test compound suspension) was measured.
6) A test was carried out in the same manner as in the above 1) to 5) except that 1.0% DMSO was used instead of the test compound solution. The result was used as a control.
Incubation was carried out under conditions of 37° C., 5% carbon dioxide and […] in an incubator throughout the above-mentioned test steps.
(Calculation of Cell Proliferation Inhibition Rate)
The cell proliferation inhibition rate (%), which was used as an index of an antiangiogenic effect, was calculated using the following calculation equation. Cell proliferation inhibition rate (%)=100−{(Absorbance of test compound suspension−A)/(absorbance of control−A)}×100 (Calculation Equation) A: Absorbance of only cell suspension (cells+medium) (Test Results and Discussion)

SMILES	inhibition at 20 µg/mL (stock)	Cell proliferation inhibition rate (%)
Cc1cc(C)cc(NC(=O)c2cccnc2SCc2ccnc(N3CCOCC3)n2)c1 [Compound 4-4, N-(3,5-Dimethylphenyl)-2-(2-morpholinopyrimidin-4-ylmethylthio)pyridine-3-carboxamide]	100%	
CC(=O)Nc1nccc(CSc2ncccc2C(=O)Nc2cc(C)cc(C)c2)n1 [Compound 2-1, 2-(2-Acetylaminopyrimidin-4-ylmethylthio)-N-(3,5-dimethylphenyl)pyridine-3-carboxamide]	100%	
Cc1cc(C)cc(NC(=O)c2cccnc2SCc2ccnc(NCCO)n2)c1 [Compound 4-19, N-(3,5-Dimethylphenyl)-2-[2-(2-hydroxyethyl)aminopyrimidin-4-ylmethylthio]pyridine-3-carboxamide]	100%	
CC(=O)N(C(C)=O)c1nccc(CSc2ncccc2C(=O)Nc2cc(C)cc(C)c2)n1 [Compound 3-1, 2-(2-Diacetylaminopyrimidin-4-ylmethylthio)-N-(3,5-dimethylphenyl)pyridine-3-carboxamide]	100%	
O=C(Nc1ccc(OC(F)(F)F)cc1)c1cccnc1SCc1ccnc(NC2CC2)n1 [Compound 4-6, 2-(2-Cyclopropylaminopyrimidin-4-ylmethylthio)-N-(4-trifluoromethoxyphenyl)pyridine-3-carboxamide]	100%	
Nc1nccc(CSc2ncccc2C(=O)Nc2cc3ccccc3cn2)n1 [Compound 1-12, 2-(2-Aminopyrimidin-4-ylmethylthio)-N-(isoquinolin-3-yl)pyridine-3-carboxamide]	84%	
O=C(Nc1cccc(C(F)(F)F)c1)c1cccnc1SCc1ccnc(NC2CC2)n1 [Compound 4-9, 2-(2-Cyclopropylaminopyrimidin-4-ylmethylthio)-N-(3-trifluoromethylphenyl)pyridine-3-carboxamide]	100%	
Cc1cc(C)cc(NC(=O)c2ccccc2SCc2ccnc(N)n2)c1 [Compound 1-16, 2-(2-Aminopyrimidin-4-ylmethylthio)-N-(3,5-dimethylphenyl)benzamide]	100%	
CSc1nccc(CSc2ncccc2C(=O)Nc2cc(C)cc(C)c2)n1 [Compound 1-26, N-(3,5-Dimethylphenyl)-2-(2-methylthiopyrimidin-4-ylmethylthio)pyridine-3-carboxamide]	100%	
Cc1cc(C)cc(NC(=O)c2cccnc2SCc2ccnc(N3CCN(CCO)CC3)n2)c1 [Compound 4-25, N-(3,5-Dimethylphenyl)-2-[2-(4-(2-hydroxyethyl)piperazin-1-yl)pyrimidin-4-ylmethylthio]pyridine-3-carboxamide]	100%	
CNc1nccc(CSc2ncccc2C(=O)Nc2cc(C)cc(C)c2)n1 [Compound 1-33, N-(3,5-Dimethylphenyl)-2-(2-methylaminopyrimidin-4-ylmethylthio)pyridine-3-carboxamide]	100%	
CCOCCNc1nccc(CSc2ncccc2C(=O)Nc2ccc(OC(F)(F)F)cc2)n1 [Compound 4-22, 2-[2-(2-Ethoxyethyl)aminopyrimidin-4-ylmethylthio]-N-(4-trifluoromethoxyphenyl)pyridine-3-carboxamide]	100%	
CC(C)c1cccc(NC(=O)c2cccnc2SCc2ccnc(N)n2)c1 [Compound 1-7, 2-(2-Aminopyrimidin-4-ylmethylthio)-N-(3-isopropylphenyl)pyridine-3-carboxamide]	96%	
Cc1cc(C)cc(NC(=O)c2cccnc2SCc2ccnc(NC3CC3)n2)c1 [Compound 4-1, 2-(2-Cyclopropylaminopyrimidin-4-ylmethylthio)-N-(3,5-dimethylphenyl)pyridine-3-carboxamide]	100%	
Cc1cc(C)cc(NC(=O)c2cccnc2SCc2ccnc(N)n2)c1 [Compound 1-1, 2-(2-Aminopyrimidin-4-ylmethylthio)-N-(3,5-dimethylphenyl)pyridine-3-carboxamide]	96%	
CC(=O)Nc1nccc(CSc2ncccc2C(=O)Nc2ccc3c(c2)CCC3)n1 [Compound 2-4, 2-(2-Acetylaminopyrimidin-4-ylmethylthio)-N-(indan-5-yl)pyridine-3-carboxamide]	99%	
Cc1cc(C)cc(NC(=O)c2sccc2SCc2ccnc(N)n2)c1 [Compound 1-20, 3-(2-Aminopyrimidin-4-ylmethylthio)-N-(3,5-dimethylphenyl) thiophene-2-carboxamide]		100%
O=C(Nc1cccc(C(F)(F)F)c1)c1cccnc1SCc1ccnc(N2CCNCC2)n1 [Compound 4-36, 2-[2-(piperazin-1-yl)pyrimidin-4-ylmethylthio]-N-(3-trifluorophenyl)pyridine-3-carboxamide]		100%
Cc1cc(C)cc(NC(=O)c2cccnc2SCc2ccncn2)c1 [Compound 1-22, N-(3,5-Dimethylphenyl)-2-(pyrimidin-4-ylmethylthio)pyridine-3-carboxamide]	100%	
CC(=O)Nc1nccc(CSc2ncccc2C(=O)Nc2ccc(Cl)cc2)n1 [Compound 2-2, 2-(2-Acetylaminopyrimidin-4-ylmethylthio)-N-(4-chlorophenyl)pyridine-3-carboxamide]	97%	
